In PubChem BioAssay (NCI):
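Following 48 hours of exposure in 96-well plates, responses at five concentrations were used to interpolate endpoints linearly. GI50 marks 50% less growth. TGI is the concentration that stops growth completely.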

Experiments:
Test in all cases: NCI tumour cell line growth inhibition, 48 h
[1] = test system: TK-10 renal
[2] = test system: EKVX NSCLC
[3] = test system: OVCAR-5 ovarian
[4] = test system: NCI-H522 lung
[5] = test system: MDA-MB-435
[6] = test system: NCI/ADR-RES ovarian
[7] = test system: SW-620 colon
[8] = test system: HOP-92 NSCLC
[9] = test system: MOLT-4 leukemia
[10] = test system: SN12C renal
[11] = test system: M14 melanoma
[12] = test system: BT-549 breast
[13] = test system: PC-3 prostate
[14] = test system: DU-145 prostate
[15] = test system: SK-MEL-2 melanoma
[16] = test system: SF-295 CNS
[17] = test system: HS 578T breast
[18] = test system: A549 NSCLC
[19] = test system: NCI-H226 lung
[20] = test system: UO-31 renal
[21] = test system: HCT-15 colon
[22] = test system: NCI-H460 lung
[23] = test system: U251 CNS
[24] = test system: HL-60(TB) leukemia
[25] = test system: HT29 colon
[26] = test system: OVCAR-8 ovarian
[27] = test system: HCC-2998 colon
[28] = test system: OVCAR-3 ovarian
[29] = test system: OVCAR-4 ovarian

With `Cc1cccc(-c2nc(Nc3ccc(C)c(S(N)(=O)=O)c3)c3ccccc3n2)c1` the GI50 [1] was 15.3 µM, the TGI [1] was 41.9 µM and the GI50 [2] was 6.18 µM. For the same molecule, the TGI [2] was 24.1 µM, the GI50 [3] was 12.4 µM and the TGI [3] was 27.4 µM. For the same molecule, the GI50 [4] was 2.72 µM, the TGI [4] was 7.93 µM and the GI50 [5] was 10.5 µM. It also gave a TGI [5] of 67.3 µM, a GI50 [6] of 5.6 µM and a TGI [6] of 35.9 µM. The GI50 [7] was 6.44 µM, the TGI [7] was 24 µM and the GI50 [8] was 6.46 µM. The TGI [8] was 27.2 µM, the GI50 [9] was 3.73 µM and the TGI [9] was 33.8 µM. For the same molecule, the GI50 [10] was 11.5 µM, the TGI [10] was 28.2 µM and the GI50 [11] was 9.55 µM. The TGI [11] was 21.3 µM, the GI50 [12] was 15.8 µM and the TGI [12] was 63.5 µM. The GI50 [13] was 4.09 µM, the TGI [13] was 55.4 µM and the GI50 [14] was 13.1 µM. The TGI [14] was 69.2 µM, the GI50 [15] was 11.4 µM and the TGI [15] was 32.1 µM. For the same molecule, the GI50 [16] was 2.61 µM, the TGI [16] was 8.28 µM and the GI50 [17] was 10.4 µM. For the same molecule, the TGI [17] was 61.1 µM, the GI50 [18] was 6.51 µM and the TGI [18] was 32.8 µM. For the same molecule, the GI50 [19] was 11.6 µM, the TGI [19] was 35.1 µM and the GI50 [20] was 5.57 µM. The TGI [20] was 27.1 µM, the GI50 [21] was 3.07 µM and the TGI [21] was 10.8 µM. It also gave a GI50 [22] of 3.94 µM, a TGI [22] of 25 µM and a GI50 [23] of 8.08 µM. It also gave a TGI [23] of 34.2 µM, a GI50 [24] of 4.67 µM and a TGI [24] of 61.5 µM. The GI50 [25] was 4.67 µM, the TGI [25] was 18.8 µM and the GI50 [26] was 9.17 µM. For the same molecule, the TGI [26] was 43.4 µM, the GI50 [27] was 3.1 µM and the TGI [27] was 10.8 µM. The GI50 [28] was 9.36 µM, the TGI [28] was over 100 µM and the GI50 [29] was 8.5 µM. The TGI [29] was over 100 µM.
